Laboratory results reported in ChEMBL document CHEMBL1201862, “PubChem BioAssay data set” (2004).
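In this assay, cells in 96-well plates receive the compound at five concentrations for 48 hours. Endpoints are linearly interpolated between the surrounding concentrations. Abbreviation: GI50, concentration required for 50% inhibition of growth.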 Active and inactive are the calls of the source. No stated cut-off is given here; in the data, active = GI50 up to about 1.1 µM and inactive = higher.

Legend:
Experiment in all cases: DTP human tumour cell line panel, 48 h
SR = tested on: SR
KM-20L2 = tested on: KM-20L2
HOP-62 = tested on: HOP-62
SW-620 = tested on: SW-620
HOP-18 = tested on: HOP-18
HCT-116 = tested on: HCT-116
EKVX = tested on: EKVX
HCC 2998 = tested on: HCC 2998
CCRF-CEM = tested on: CCRF-CEM
SK-MEL-5 = tested on: SK-MEL-5
SNB-75 = tested on: SNB-75
K562 = tested on: K562
RXF 393 = tested on: RXF 393
A549 = tested on: A549
CAKI-1 = tested on: CAKI-1
LXFL 529 = tested on: LXFL 529
SK-MEL-2 = tested on: SK-MEL-2
NCI-H23 = tested on: NCI-H23
MOLT-4 = tested on: MOLT-4
UO-31 = tested on: UO-31
RPMI-8226 = tested on: RPMI-8226
SF-539 = tested on: SF-539
SF-268 = tested on: SF-268
NCI-H460 = tested on: NCI-H460
LOX IMVI = tested on: LOX IMVI
A498 = tested on: A498
ACHN = tested on: ACHN
HOP-92 = tested on: HOP-92
NCI-H522 = tested on: NCI-H522
COLO 205 = tested on: COLO 205
HT-29 = tested on: HT-29
UACC-257 = tested on: UACC-257
HL-60 = tested on: HL-60
OVCAR-8 = tested on: OVCAR-8
XF498 = tested on: XF498
M14 = tested on: M14
SK-OV-3 = tested on: SK-OV-3
HCT-15 = tested on: HCT-15
NCI-H226 = tested on: NCI-H226
KM12 = tested on: KM12
SF-295 = tested on: SF-295
SNB-78 = tested on: SNB-78
OVCAR-3 = tested on: OVCAR-3
SNB-19 = tested on: SNB-19
Malme-3M = tested on: Malme-3M
DMS-273 = tested on: DMS-273
SN12C = tested on: SN12C
OVCAR-5 = tested on: OVCAR-5
U-251 = tested on: U-251
DLD-1 = tested on: DLD-1
RXF 631 = tested on: RXF 631
786-0 = tested on: 786-0
IGROV-1 = tested on: IGROV-1
SK-MEL-28 = tested on: SK-MEL-28
TK-10 = tested on: TK-10
OVCAR-4 = tested on: OVCAR-4
DMS-114 = tested on: DMS-114
M19-MEL = tested on: M19-MEL
UACC-62 = tested on: UACC-62

With `CCCCOCc1cc(CN2CCN(C)CC2)c(O)c2ncccc12` the GI50 (SR) was 3.49 µM (inactive), the GI50 (KM-20L2) was 26.4 µM (inactive) and the GI50 (HOP-62) was 14.4 µM (inactive). The GI50 (SW-620) was 9.89 µM (inactive), the GI50 (HOP-18) was 5.35 µM (inactive) and the GI50 (HCT-116) was 14.7 µM (inactive). For the same compound, the GI50 (EKVX) was 23.5 µM (inactive), the GI50 (HCC 2998) was 24.3 µM (inactive) and the GI50 (CCRF-CEM) was 3.07 µM (inactive). The GI50 (SK-MEL-5) was 4.02 µM (inactive), the GI50 (SNB-75) was 52.7 µM (inactive) and the GI50 (K562) was 3.26 µM (inactive). The GI50 (RXF 393) was 36.6 µM (inactive), the GI50 (A549) was 23.6 µM (inactive) and the GI50 (CAKI-1) was 24.6 µM (inactive). The GI50 (LXFL 529) was 11.9 µM (inactive), the GI50 (SK-MEL-2) was 25.3 µM (inactive) and the GI50 (NCI-H23) was 14.5 µM (inactive). The GI50 (MOLT-4) was 4.79 µM (inactive), the GI50 (UO-31) was 9.66 µM (inactive) and the GI50 (RPMI-8226) was 3.29 µM (inactive). The GI50 (SF-539) was 19.4 µM (inactive), the GI50 (SF-268) was 16.2 µM (inactive) and the GI50 (NCI-H460) was 7.46 µM (inactive). For the same compound, the GI50 (LOX IMVI) was 22.1 µM (inactive), the GI50 (A498) was 24.8 µM (inactive) and the GI50 (ACHN) was 6.24 µM (inactive). For the same compound, the GI50 (HOP-92) was 55.1 µM (inactive), the GI50 (NCI-H522) was 26.4 µM (inactive) and the GI50 (COLO 205) was 29.6 µM (inactive). The GI50 (HT-29) was 31.6 µM (inactive), the GI50 (UACC-257) was 21.1 µM (inactive) and the GI50 (HL-60) was 2.13 µM (inactive). The GI50 (OVCAR-8) was 17.8 µM (inactive), the GI50 (XF498) was 30.8 µM (inactive) and the GI50 (M14) was 12.5 µM (inactive). For the same compound, the GI50 (SK-OV-3) was 67.6 µM (inactive), the GI50 (HCT-15) was 2.77 µM and the GI50 (NCI-H226) was 20.8 µM (inactive). The GI50 (KM12) was 21.1 µM (inactive), the GI50 (SF-295) was 4.17 µM (inactive) and the GI50 (SNB-78) was 31 µM (inactive). For the same compound, the GI50 (OVCAR-3) was 7.59 µM (inactive), the GI50 (SNB-19) was 30.8 µM (inactive) and the GI50 (Malme-3M) was 21.3 µM (inactive). For the same compound, the GI50 (DMS-273) was 12.1 µM (inactive), the GI50 (SN12C) was 21.9 µM (inactive) and the GI50 (OVCAR-5) was 24.4 µM (inactive). The GI50 (U-251) was 12.5 µM (inactive), the GI50 (DLD-1) was 8.05 µM (inactive) and the GI50 (RXF 631) was 53.7 µM (inactive). The GI50 (786-0) was 14.6 µM (inactive), the GI50 (IGROV-1) was 29.3 µM (inactive) and the GI50 (SK-MEL-28) was 31.4 µM (inactive). The GI50 (TK-10) was > 100 µM (inactive), the GI50 (OVCAR-4) was 21.5 µM (inactive) and the GI50 (DMS-114) was 6.38 µM (inactive). The GI50 (M19-MEL) was 26.7 µM (inactive) and the GI50 (UACC-62) was 13.9 µM (inactive).
